Data as given in patent US20180021450A1, “ANTI-STAPHYLOCOCCUS AUREUS ANTIBODY RIFAMYCIN CONJUGATES AND USES THEREOF” (Genentech, Inc., priority 2014, published 2018).
In brackets after ≈: the same amount, converted by molar mass. Read-outs that look alike come from different tables or passages of the source.

Columns and labels:
[1] = test system: MRSA (NRS384 strain of USA300); assay: MIC determination for extracellular bacteria in liquid culture; format: cell-based; conditions: Staphylococcus aureus, read-out: Extracellular MRSA MIC
Experimental: The MIC for extracellular bacteria was determined by preparing serial 2-fold dilutions of the antibiotic in Tryptic Soy Broth. Dilutions of the antibiotic were made in quadruplicate in 96 well culture dishes. MRSA (NRS384 strain of USA300) was taken from an exponentially growing culture and diluted to 1×10^4 CFU/mL. The bacteria was cultured in the presence of antibiotic for 18-24 hours with shaking at 37° C. and bacterial growth was determined by reading the Optical Density (OD) at […]. The MIC was determined to be the dose of antibiotic that inhibited bacterial growth by >90%.
(§1) For extracellular bacteria, MRSA was cultured overnight in Tryptic Soy Broth, and the MIC was determined to be the minimum antibiotic dose that prevented growth. For intracellular bacteria, murine peritoneal macrophages were infected with MRSA and cultured in the presence of gentamycin to kill extracellular bacteria. Test antibiotics were added to the culture medium one day post infection, and the total number of surviving intracellular bacteria was determined 24 hours later. The expected serum concentrations for clinically relevant antibiotics was reported in Antimicrobial Agents, Andre Bryskier. ASM Press, Washington D.C. (2005).

[2] = test system: intracellular MRSA sequestered inside murine macrophages; assay: MIC determination for intracellular bacteria inside murine peritoneal macrophages; format: cell-based, Staphylococcus aureus; conditions: for MIC: Staphylococcus aureus, MRSA, read-out: Intracellular MRSA MIC; for killing of MRSA sequestered inside macrophages: macrophages exposed to clinically achievable concentrations
Experimental: Intracellular MIC was determined on bacteria that were sequestered inside mouse peritoneal macrophages (see below for generation of murine peritoneal macrophages). Macrophages were plated in 24 well culture dishes at a density of 4×10^5 cells/mL and infected with MRSA at a ratio of 10-20 bacteria per macrophage. Macrophage cultures were maintained in growth media supplemented with 50 ug/mL of gentamycin (an antibiotic that is active only on extracellular bacteria) to inhibit the growth of extracellular bacteria and test antibiotics were added to the growth media 1 day after infection. The survival of intracellular bacteria was assessed 24 hours after addition of the antibiotics. Macrophages were lysed with Hanks Buffered Saline Solution supplemented with 0.1% Bovine Serum Albumin and 0.1% Triton-X, and serial dilutions of the lysate were made in Phosphate Buffered Saline solution containing 0.05% Tween-20. The number of surviving intracellular bacteria was determined by plating on Tryptic Soy Agar plates with 5% defibrinated sheep blood.
Peritoneal macrophages were isolated from the peritoneum of 6-8 week old Balb/c mice (Charles River Laboratories, Hollister, Calif.). To increase the yield of macrophages, mice were pre-treated by intraperitoneal injection with 1 mL of thioglycolate media (Becton Dickinson). The thioglycolate media was prepared at a concentration of 4% in water, sterilized by autoclaving, and aged for 20 days to 6 months prior to use. Peritoneal macrophages were harvested 4 days post treatment with thioglycolate by washing the peritoneal cavity with cold phosphate buffered saline. Macrophages were plated in Dulbecco's Modified Eagle Medium (DMEM) supplemented with 10% Fetal Calf Serum, and 10 mM HEPES, without antibiotics, at a density of 4×10^5 cells/well in 24 well culture dishes. Macrophages were cultured over night to permit adherence to the plate. This assay was also utilized to test intracellular killing in non-phagocytic cell types. MG63 (CRL-1427) and A549 (CCL185) cell lines were obtained from ATCC and maintained in RPMI 1640 tissue culture media supplemented with 10 mM Hepes and 10% Fetal Calf Serum (RPMI-10). HUVEC cells were obtained from Lonza and maintained in EGM Endothelial Cell Complete Media (Lonza, Walkersville, Md.).
as §1

[3] = expected serum concentration, from Antimicrobial Agents, Bryskier (2005); cited from earlier work
[4] = test system: S. aureus (USA300) persister cells; assay: Killing of persister cells by free antibiotics; format: cell-based, Staphylococcus aureus; conditions: ciprofloxacin-treated cultures, second antibiotic 1 ug/ml
Experimental: Killing of persisters cells by free antibiotics: S. aureus (USA300) was taken from an overnight stationary phase culture, washed once in Tryptic Soy Broth (TSB) and then adjusted to a final concentration of 1×10^7 CFU/ml in a total volume of 10 mL of either TSB or TSB with ciprofloxicin (0.05 mM). Cultures were incubated with shaking at 37° C. for 6 hours and then the second antibiotic, either rifampicin (1 ug/ml) or another rifamycin-type antibiotic (1 ug/ml) was added. At the indicated times, samples were removed from each culture, washed once with PBS to remove the antibiotic and re-suspended in PBS. The total number of surviving bacteria was determined by plating serial dilutions of the bacteria on agar plates. At the final time point the remainder of each culture was collected and plated.

MRSA = assay: In vitro transfer of infection to MG63 osteoblasts / HBMEC in the presence of vancomycin; format: cell-based, Staphylococcus aureus
Experimental: 6-8 week old female A/J mice (Jackson Lab) were infected with 1×10^8 CFU of the NRS384 strain of USA300 by peritoneal injection. The peritoneal wash was harvested 1 day post infection, and the infected peritoneal cells were treated with 50 ug/mL of lysostaphin diluted in Hepes Buffer supplemented with 0.1% BSA (HB buffer) for 30 minutes at 37° C. Peritoneal cells were then washed 2x in ice cold HB buffer. The peritoneal cells were diluted to 1×10^6 cells/mL in RPMI 1640 tissue culture media supplemented with 10 mM Hepes and 10% Fetal Calf Serum, and 5 ug/mL vancomycin. Free MRSA from the primary infection was stored overnight at 4° C. in Phosphate Buffered Saline Solution as a control for extracellular bacteria that were not subject to neutrophil killing.
MG63 cell line was obtained from ATCC (CRL-1427) and maintained in RPMI 1640 tissue culture media supplemented with 10 mM Hepes and 10% Fetal Calf Serum (RPMI-10). HBMEC cells (Catalog #1000) and ECM media (catalog#1001) were obtained from SciencCell Research Labs (Carlsbad, Calif.). Cells were plated in 24 well tissue culture plates and cultured to obtain a confluent layer. On the day of the experiment, the cells were washed once in RPMI (without supplements). MRSA or infected peritoneal cells were diluted in complete RPMI-10 and vancomycin was added at 5 ug/mL immediately prior to infection. Peritoneal cells were added to the osteoblasts at 1×10^6 peritoneal cells/mL. A sample of the cells was lysed with 0.1% triton-x to determine the actual concentration of live intracellular bacteria at the time of infection. The actual titer for all infections was determined by plating serial dilutions of the bacteria on Tryptic Soy Agar with 5% defibrinated sheep blood.
MRSA (free bacteria) was seeded in media, media+vancomycin, or media+vancomycin and plated on a monolayer of MG63 osteoblasts (FIG. 1E) or Human Brain Microvascular Endothelial Cells (HBMEC, FIG. 1F). Plates were centrifuged to promote contact of the bacteria with the monolayer. At each time point, the culture supernatant was collected to recover extracellular bacteria or adherent cells were lysed to release intracellular bacteria.

USA300 = assay: In vivo transfer of infection model in A/J mice (free vs intracellular bacteria); design: species or system Staphylococcus aureus; conditions: mice infected i.v. with free or intracellular bacteria, examined 4 days after infection
Experimental: USA300 stocks were prepared for infection from actively growing cultures in tryptic soy broth. Bacteria were washed 3× in phosphate buffered saline (PBS) and aliquots were frozen at −80° C. in PBS 25% glycerol. Intracellular Bacteria Infections: A/J mice were chosen for these experiments because they are easily infected with relatively low doses of MRSA (2×10^6 CFU/mouse). 7 week old female A/J mice were obtained from Jackson Lab and infected by peritoneal injection with 5×10^7 CFU of USA300. Mice were sacrificed 1 day post infection and the peritoneum was flushed with 5 mL of cold PBS. Peritoneal washes were centrifuged for 5 minutes at 1,000 rpm at 4° C. in a table top centrifuge. The cell pellet containing peritoneal cells was collected and cells were treated with 50 ug/mL of lysostaphin (Cell Sciences Inc. Canton Mass., CRL 309C) for 20 minutes at 37° C. to kill contaminating extracellular bacteria. Peritoneal cells were washed 3x in ice cold PBS to remove the lysostaphin. […]
These experiments compared the virulence of intracellular bacteria versus an equivalent dose of free-living planktonic bacteria, and determined whether the intracellular bacteria are able to establish infection in the presence of vancomycin in vivo. […]

[5] = extracellular bacteria grown in liquid culture (Tryptic Soy Broth)
[6] = bacteria sequestered inside murine macrophages, antibiotics added one day post infection, survivors counted 24 hours later

| Structure (SMILES) | MIC [1] | MIC ([2]; 24 h) | killing of MRSA sequestered inside macrophages [2] | Serum Cmax [3] | MIC [1, 5] | MIC [2, 6] | higher dose to eliminate intracellular MRSA compared to the dose required to inhibit growth (MIC) of planktonic bacteria ([2]; intracellular vs planktonic MRSA USA300) | effect on viability of persister cells [4] | increase of intracellular S. aureus over a 24 hour period (MRSA; MG63 cells, primary human brain endothelial cells, A549 cells, constant exposure to vancomycin) | survival of intracellular MRSA in the leukocytes (MRSA; MRSA sequestered inside peritoneal cells, vancomycin 5 ug/mL) | surviving bacteria associated with the MG63 cells one day after infection (MRSA; planktonic bacteria plated on MG63 osteoblasts, vancomycin 5 ug/mL) | killing of planktonic bacteria exposed to vancomycin alone (MRSA; vancomycin 5 ug/mL, one day in culture) | establishment of infection (kidney, brain) under vancomycin therapy (USA300) |
| --- | --- | --- | --- | --- | --- | --- | --- | --- | --- | --- | --- | --- | --- |
| CCCCCCCCCC(=O)N[C@@H](Cc1c[nH]c2ccccc12)C(=O)N[C@H](CC(N)=O)C(=O)N[C@@H](CC(=O)O)C(=O)N[C@@H]1C(=O)NCC(=O)N[C@@H](CCCN)C(=O)N[C@@H](CC(=O)O)C(=O)N[C@H](C)C(=O)N[C@@H](CC(=O)O)C(=O)NCC(=O)N[C@H](CO)C(=O)N[C@@H]([C@H](C)CC(=O)O)C(=O)N[C@@H](CC(=O)c2ccccc2N)C(=O)O[C@@H]1C [Daptomycin] | 4 µg/mL (≈ 2.47 µM) | > 100 µg/mL | failed to kill | 60 µg/mL | – | – | – | – | – | – | – | – | – |
| CC(=O)NC[C@H]1CN(c2ccc(N3CCOCC3)c(F)c2)C(=O)O1 [Linezolid] | – | – | failed to kill | 20 µg/mL | 0.3 µg/mL (≈ 0.889 µM) | > 20 µg/mL | – | – | – | – | – | – | – |
| CO[C@H]1/C=C/O[C@@]2(C)Oc3c(C)c(O)c4c(O)c(c(/C=N/N5CCN(C)CC5)c(O)c4c3C2=O)NC(=O)/C(C)=C\C=C\[C@H](C)[C@H](O)[C@@H](C)[C@@H](O)[C@@H](C)[C@H](OC(C)=O)[C@@H]1C [Rifampicin] | – | – | – | – | 0.004 µg/mL (≈ 0.00486 µM) | 50 µg/mL (≈ 60.8 µM) | 6,000 fold | no effect | – | – | – | – | – |
| CN[C@H](CC(C)C)C(=O)N[C@H]1C(=O)N[C@@H](CC(N)=O)C(=O)N[C@H]2C(=O)N[C@H]3C(=O)N[C@H](C(=O)N[C@H](C(=O)O)c4cc(O)cc(O)c4-c4cc3ccc4O)[C@H](O)c3ccc(c(Cl)c3)Oc3cc2cc(c3O[C@@H]2O[C@H](CO)[C@@H](O)[C@H](O)[C@H]2O[C@H]2C[C@](C)(N)[C@H](O)[C@H](C)O2)Oc2ccc(cc2Cl)[C@H]1O [Vancomycin] | 1 µg/mL (≈ 0.69 µM) | > 100 µg/mL | failed to kill | 50 µg/mL | – | – | – | – | ~10 fold | About 15% | approximately 0.06 % of input | efficiently killed | intracellular bacteria, but not planktonic bacteria, were able to establish infection |
